Reference: patent US20260070911A1, “INHIBITORS OF TAM RECEPTORS” (National Health Research Institutes, priority 2022, published 2026)

How the values were obtained:
Type in all cases: biochemical
[1] = system: MER/AXL; assay: Dual MER/AXL inhibition (enzymatic); conditions: class for both MER and AXL
Description: (§1) A purified kinase (AXL or MERTK) was incubated with a compound or DMSO (control) for 15 minutes in an assay buffer (25 mM Tri s pH 7.4, 10 mM MgCl2, 4 mM MnCl2, 2 mM DTT, 0.0100 BSA, 0.02% TritonX-100, 0.0100 Brij35 and 0.5 mM Na3VO4 for MERTK; and 40 mM Tri s pH 7.4, 20 mM MgCl2, 2 mM DTT, 0.01% BSA and 0.5 mM Na3VO4 for AXL). […] The mixture was incubated for 3 hours at 30° C. The luminescence was calculated to determine the kinase activity using a Kinase Glo assay kit for MERTK and an ADP-Glo Kinase Assay kit for AXL following the manufacture's instructions (Promega Corp., Madison, Wisconsin).

[2] = target: T1, AXL (Homo sapiens, UniProt P30530); assay: AXL enzymatic assay (ADP-Glo); conditions: purified kinase, ATP 50 μM, read-out: AXL Enzymatic Inhibition (%)
T1 sequence (P30530 26-894): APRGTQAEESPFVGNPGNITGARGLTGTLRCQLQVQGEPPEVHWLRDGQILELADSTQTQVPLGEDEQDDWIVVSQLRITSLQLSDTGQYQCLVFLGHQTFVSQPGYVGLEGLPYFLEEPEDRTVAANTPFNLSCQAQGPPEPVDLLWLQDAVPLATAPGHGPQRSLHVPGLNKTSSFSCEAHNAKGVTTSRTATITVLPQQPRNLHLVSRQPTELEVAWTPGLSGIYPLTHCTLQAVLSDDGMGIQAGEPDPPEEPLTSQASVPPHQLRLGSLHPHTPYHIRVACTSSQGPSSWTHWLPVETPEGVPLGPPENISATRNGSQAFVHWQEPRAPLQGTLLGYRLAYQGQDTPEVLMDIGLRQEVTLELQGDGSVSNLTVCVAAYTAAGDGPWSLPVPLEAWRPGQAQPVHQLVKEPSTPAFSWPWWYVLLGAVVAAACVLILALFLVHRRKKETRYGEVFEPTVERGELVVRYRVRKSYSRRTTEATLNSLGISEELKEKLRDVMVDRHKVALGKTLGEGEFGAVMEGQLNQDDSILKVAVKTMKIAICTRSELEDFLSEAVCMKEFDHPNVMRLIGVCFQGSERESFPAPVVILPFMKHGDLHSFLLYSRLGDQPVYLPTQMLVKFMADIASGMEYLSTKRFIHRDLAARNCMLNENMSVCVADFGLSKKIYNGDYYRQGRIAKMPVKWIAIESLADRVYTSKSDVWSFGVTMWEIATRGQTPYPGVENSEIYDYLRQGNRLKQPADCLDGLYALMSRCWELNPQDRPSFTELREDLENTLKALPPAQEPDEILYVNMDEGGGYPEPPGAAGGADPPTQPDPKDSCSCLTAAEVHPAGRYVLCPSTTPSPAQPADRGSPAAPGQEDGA
Description: as §1
(§2) A study was conducted to compare exemplary compounds of formula (I) in inhibiting TAM activities, including MERTK, AXL, and TYRO3. An enzymatic assay was used in the study. A purified Kinase (i.e., MERTK, AXL, or TYRO3) was incubated with a compound or DMSO (control) for around 15 minutes in an assay buffer (25 mM Tris pH 7.4, 10 mM MgCl2, 4 mM MnCl2, 2 mM DTT, 0.01% BSA, 0.02% TritonX-100, 0.01% Brij35 and 0.5 mM Na3VO4 for MERTK; 40 mM Tris pH 7.4, 20 mM MgCl2, 2 mM DTT, 0.01% BSA and 0.5 mM Na3VO4 for AXL; and 25 mM Tris pH 7.4, 10 mM MgCl2, 4 mM MnCl2, 2 mM DTT, 0.01% BSA and 0.5 mM Na3VO4 for TYRO3). […] The mixture was incubated for 3 hours at 30° C. The luminescence was calculated to determine the kinase activity using a Kinase Glo assay kit for MERTK and an ADP-Glo Kinase assay kit for AXL and TYRO3 following the manufacture's instructions (Promega). Inhibition rates and half maximal inhibitory concentration (IC50) values were calculated. High percentage inhibition rates and low IC50 values are indicatives of high potency of the test compound.

[3] = target: T2, MERTK (Homo sapiens, UniProt Q12866); assay: MERTK enzymatic assay (Kinase Glo); conditions: purified kinase, ATP 12 μM, read-out: MER Enzymatic Inhibition (%)
T2 sequence (Q12866 21-999): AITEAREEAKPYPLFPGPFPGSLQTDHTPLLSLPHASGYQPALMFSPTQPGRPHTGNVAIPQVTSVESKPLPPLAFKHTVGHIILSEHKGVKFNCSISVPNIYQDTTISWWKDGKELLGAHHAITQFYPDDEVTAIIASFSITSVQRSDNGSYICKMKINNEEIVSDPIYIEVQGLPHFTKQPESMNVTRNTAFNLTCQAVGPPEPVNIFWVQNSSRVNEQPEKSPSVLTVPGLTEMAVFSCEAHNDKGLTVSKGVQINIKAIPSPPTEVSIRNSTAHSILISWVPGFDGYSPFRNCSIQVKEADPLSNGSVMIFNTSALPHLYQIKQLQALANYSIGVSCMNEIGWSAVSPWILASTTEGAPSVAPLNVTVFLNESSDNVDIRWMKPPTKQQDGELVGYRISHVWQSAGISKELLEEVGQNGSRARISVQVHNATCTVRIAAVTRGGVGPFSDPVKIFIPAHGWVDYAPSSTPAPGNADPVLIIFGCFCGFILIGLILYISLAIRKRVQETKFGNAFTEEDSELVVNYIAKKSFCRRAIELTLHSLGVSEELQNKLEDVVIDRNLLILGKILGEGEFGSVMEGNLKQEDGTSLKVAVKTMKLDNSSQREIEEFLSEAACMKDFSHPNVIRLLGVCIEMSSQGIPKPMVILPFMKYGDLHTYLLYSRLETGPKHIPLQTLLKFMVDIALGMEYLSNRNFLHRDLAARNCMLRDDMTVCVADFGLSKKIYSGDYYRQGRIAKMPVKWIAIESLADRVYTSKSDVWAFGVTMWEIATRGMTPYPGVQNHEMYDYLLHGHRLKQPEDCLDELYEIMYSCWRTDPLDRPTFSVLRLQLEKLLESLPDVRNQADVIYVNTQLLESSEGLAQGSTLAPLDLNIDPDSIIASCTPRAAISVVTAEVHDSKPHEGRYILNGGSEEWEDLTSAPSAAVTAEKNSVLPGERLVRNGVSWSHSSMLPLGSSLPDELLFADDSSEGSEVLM
Description: as §1, §2

| SMILES | IC50 [1] | IC50 [2] | IC50 [3] |
| --- | --- | --- | --- |
| CC(=O)Nc1cccc(-c2c(-c3cn(C)nc3C)oc3ncnc(Oc4ccc(NC(=O)c5cccn(-c6ccc(F)cc6)c5=O)cc4)c23)c1 [Compound 27] | 0.1 to 50 µM | < 0.02 µM | 0.1 to 50 µM |
| CC(=O)Nc1cccc(-c2c(-c3cnn(C)c3)oc3ncnc(Oc4ccc(NC(=O)c5cccn(-c6cccc(F)c6)c5=O)cc4)c23)c1 [Compound 57] | 0.1 to 50 µM | < 0.02 µM | 0.1 to 50 µM |
| CCOc1ccn(-c2ccc(F)cc2)c(=O)c1C(=O)Nc1ccc(Oc2ncnc3[nH]cc(-c4cccc(NC(C)=O)c4)c23)cc1 [Compound 2] | 0.02 to 0.1 µM | < 0.02 µM | 0.02 to 0.1 µM |
| CC(=O)Nc1cccc(-c2c[nH]c3ncnc(Oc4ccc(NC(=O)c5cn(C)n(-c6ccc(F)cc6)c5=O)cc4)c23)c1 [Compound 125] | 0.1 to 50 µM | 0.1 to 50 µM | 0.1 to 50 µM |
| CN(C)Cc1cccc(-c2c(-c3cnn(C)c3)oc3ncnc(Oc4ccc(NC(=O)c5cccn(C6CCCCC6)c5=O)cc4)c23)c1 [Compound 84] | 0.1 to 50 µM | 0.1 to 50 µM | 0.1 to 50 µM |
| CCOc1ccn(-c2ccc(F)cc2)c(=O)c1C(=O)Nc1ccc(Oc2ncnc3oc(-c4cnn(C)c4)c(-c4cccc(N)c4)c23)cc1 [Compound 19] | 0.02 to 0.1 µM | < 0.02 µM | 0.02 to 0.1 µM |
| COc1nn(-c2ccc(C)cc2)cc1C(=O)Nc1ccc(Oc2ncnc3oc(-c4cnn(C)c4)c(-c4cccc(CN(C)C)c4)c23)cc1 [Compound 138] | 0.1 to 50 µM | 0.1 to 50 µM | 0.1 to 50 µM |
| Cn1cc(-c2oc3ncnc(Oc4ccc(NC(=O)c5ccc[nH]c5=O)cc4)c3c2-c2cccc(N)c2)cn1 [Compound 77] | 0.1 to 50 µM | 0.1 to 50 µM | 0.1 to 50 µM |
| CN1CCN(c2cccc(-c3c(-c4cnn(C)c4)oc4ncnc(Oc5ccc(NC(=O)c6cccn(-c7ccc(F)cc7)c6=O)cc5)c34)c2)CC1 [Compound 38] | 0.02 to 0.1 µM | < 0.02 µM | 0.02 to 0.1 µM |
| O=C(Nc1ccc(Oc2ncnc3[nH]c(-c4ccsc4)cc23)cc1)c1cccn(-c2ccc(F)cc2)c1=O [Compound 79] | 0.1 to 50 µM | 0.1 to 50 µM | 0.1 to 50 µM |
| CC(=O)Nc1cccc(-c2c(-c3cnn(C)c3)oc3ncnc(Oc4ccc(NC(=O)c5cccn(C)c5=O)cc4)c23)c1 [Compound 75] | 0.1 to 50 µM | 0.1 to 50 µM | 0.1 to 50 µM |
| CN(C)Cc1cccc(-c2c[nH]c3ncnc(Oc4ccc(NC(=O)c5cccn(-c6ccc(F)cc6)c5=O)cc4)c23)c1 [Compound 82] | < 0.02 µM | < 0.02 µM | < 0.02 µM |
| CN(C)Cc1cccc(-c2n[nH]c3ncnc(Oc4ccc(NC(=O)c5cccn(-c6ccc(F)cc6)c5=O)cc4)c23)c1 [Compound 88] | 0.02 to 0.1 µM | < 0.02 µM | 0.02 to 0.1 µM |
| CC(=O)Nc1cccc(-c2c(-c3cc[nH]n3)oc3ncnc(Oc4ccc(NC(=O)c5cccn(-c6ccc(F)cc6)c5=O)cc4)c23)c1 [Compound 67] | 0.1 to 50 µM | < 0.02 µM | 0.1 to 50 µM |
| O=C(Nc1ccc(Oc2nc(Cl)nc3[nH]ccc23)cc1)c1cccn(-c2ccc(F)cc2)c1=O [Compound 5] | 0.1 to 50 µM | 0.1 to 50 µM | 0.1 to 50 µM |
| Cn1cc(-c2oc3ncnc(Oc4ccc(NC(=O)c5cn(C)n(-c6ccc(F)cc6)c5=O)cc4)c3c2-c2cccc(CN3CCOCC3)c2)cn1 [Compound 127] | 0.1 to 50 µM | < 0.02 µM | 0.1 to 50 µM |
| Cn1cc(-c2oc3ncnc(Oc4ccc(NC(=O)c5cccn(-c6ccc(F)nc6)c5=O)cc4)c3c2-c2cccc(N)c2)cn1 [Compound 80] | 0.02 to 0.1 µM | < 0.02 µM | 0.02 to 0.1 µM |
| CN(C)Cc1ccccc1-c1c(-c2cnn(C)c2)oc2ncnc(Oc3ccc(NC(=O)c4cccn(-c5ccc(F)cc5)c4=O)cc3)c12 [Compound 91] | 0.1 to 50 µM | 0.1 to 50 µM | 0.1 to 50 µM |
| CC(=O)Nc1cccc(-c2c(-c3cnn(C)c3)oc3ncnc(Oc4ccc(NC(=O)c5c(C)ccn(-c6ccc(F)cc6)c5=O)cc4)c23)c1 [Compound 72] | 0.1 to 50 µM | 0.1 to 50 µM | 0.1 to 50 µM |
| CC(=O)Nc1cccc(-c2c(-c3cnn(C)c3)oc3ncnc(Oc4ccc(NC(=O)c5cccn(-c6ccc(F)nc6)c5=O)cc4)c23)c1 [Compound 81] | 0.1 to 50 µM | 0.1 to 50 µM | 0.1 to 50 µM |
| Cn1cc(-c2oc3ncnc(Oc4ccc(NC(=O)c5cc(-c6ccc(F)cc6)on5)cc4)c3c2-c2cccc(N)c2)cn1 [Compound 115] | 0.1 to 50 µM | 0.1 to 50 µM | 0.1 to 50 µM |
| CC(=O)Nc1cccc(-c2c(-c3ccsc3)oc3ncnc(Oc4ccc(NC(=O)c5cccn(-c6ccc(F)cc6)c5=O)cc4)c23)c1 [Compound 59] | 0.1 to 50 µM | < 0.02 µM | 0.1 to 50 µM |
| Nc1cccc(-c2c(-c3ccccc3)oc3ncnc(Oc4ccc(NC(=O)c5cccn(-c6ccc(F)cc6)c5=O)cc4)c23)c1 [Compound 9] | 0.1 to 50 µM | 0.1 to 50 µM | 0.1 to 50 µM |
| CC(=O)Nc1cccc(-c2c(-c3cnn(C)c3)oc3ncnc(Oc4ccc(NC(=O)c5cccn(-c6ccc(F)cc6C)c5=O)cc4)c23)c1 [Compound 74] | 0.1 to 50 µM | 0.1 to 50 µM | 0.1 to 50 µM |
| CCOc1ccn(-c2ccc(F)cc2)c(=O)c1C(=O)Nc1ccc(Oc2ncnc3[nH]cc(-c4cccc(N)c4)c23)cc1 [Compound 1] | 0.02 to 0.1 µM | < 0.02 µM | 0.02 to 0.1 µM |
| Cc1cc(F)ccc1-n1cccc(C(=O)Nc2ccc(Oc3ncnc4oc(-c5cnn(C)c5)c(-c5cccc(CN(C)C)c5)c34)cc2)c1=O [Compound 98] | 0.02 to 0.1 µM | < 0.02 µM | 0.02 to 0.1 µM |
